Values of other authors, collected in patent publication US20220312825A1 (priority 2021, published 2022).

Conditions: free base (non-protonated)

In the case of CN1CCCC1c1cccnc1 (stereo not shown) [Free-base nicotine, 3-(1-methyl-2-pyrrolidinyl) pyridine], the pKa value is given as “about 8”.
